{"source": "patent US20240122899A1", "about": "“COMPOSITION FOR STIMULATING IMMUNE CELL METABOLISM” (SUNTORY HOLDINGS LIMITED, priority 2021, published 2024)", "key": {"[1]": {"settings": "mice orally administered, versus mice not administered; cited from earlier work"}, "[2]": {"test_system": "human peripheral blood mononuclear cells (PBMCs)", "assay": "Mitochondrial stress test / oxygen consumption rate (XFe96 flux analyzer) in human PBMCs", "type": "cell-based", "settings": "final concentration of 10 μM, 30 μM, or 100 μM", "procedure": "The effect of the compound (L-ergothioneine) of the present invention on mitochondrial function was analyzed. Ergothioneine was added to human peripheral blood mononuclear cells (PBMCs) under the following conditions. The extracellular oxygen level and pH were measured in real time using an XFe96 flux analyzer (available from Agilent Technologies). XFe technology uses solid-state sensors to simultaneously measure both oxygen consumption rate (OCR) and extracellular acidification rate (ECAR) to determine effects on oxidative phosphorylation (OXPHOS) and glycolysis simultaneously. […] Then, the cells were sequentially exposed to various mitochondrial function inhibitors to evaluate cell metabolism. (Conditions for adding ergothioneine to human PBMCs) Human PBMCs were kept in an XF assay medium (XF RPMI1640 medium). Here, L-ergothioneine was adjusted to a final concentration of 0, 10, 30, or 100 μM. The cells (30,000 cells/50 μL/well) were seeded onto an XF96-well cell culture plate coated with PDL and were centrifuged at 200 g for one minute so that the cells were adhered to the plate. After culturing at 37° C. in the absence of CO2 for 20 minutes, the XF assay medium (130 μL) was added gently, followed by further culturing at 37° C. in the absence of CO2 for 40 minutes. The following mitochondrial stress test was performed on the obtained human PBMCs to which ergothioneine was added. An XF Mit Stress Kit (available from Agilent Technologies) was used for the experiment. […] The results obtained are shown in FIG. 1A (basal respiration), FIG. 1B (ATP production), and FIG. 1C (maximum respiration) to facilitate understanding of a possible mechanism of mitochondria metabolism. […] FIGS. 1A to 1C show the resulting values expressed as mean±standard deviation. A significance test was performed by Dunnett's test (test by multiple comparison assuming equal variance, p-value) using an Excel analysis tool to obtain test results relative to the final concentration (0 μM) of ergothioneine (*: p<0.05, **: p<0.01)."}, "[3]": {"test_system": "IL-6, IL-12, IL-1β, and IL-10", "settings": "absence of the TLR ligand; ergothioneine concentration 0 or 10 mM; cited from earlier work"}}}
{"compound": "C[N+](C)(C)[C@@H](Cc1c[nH]c(=S)[nH]1)C(=O)[O-]", "note": "[ergothioneine, L-ergothioneine]", "values": [{"measurement": "peritesticular fat weight", "setting": "[1]", "value": "lower"}, {"measurement": "triglyceride (neutral fat) level in plasma", "setting": "[1]", "value": "lower"}, {"measurement": "oxygen consumption rate (OCR) of human PBMCs over time", "setting": "[2]; FIG. 2", "value": "increase"}, {"measurement": "OCR related to basal respiration (mitochondrial basal respiration)", "setting": "[2]; relative to 0 μM, FIG. 1A", "value": "significant increase"}, {"measurement": "OCR related to ATP-related respiration (mitochondrial ATP production)", "setting": "[2]; relative to 0 μM, FIG. 1B", "value": "significant increase"}, {"measurement": "OCR related to maximum respiration (mitochondrial maximum respiration)", "setting": "[2]; relative to 0 μM, FIG. 1C", "value": "significant increase"}, {"measurement": "detection of IL-6, IL-12, IL-1β, and IL-10", "setting": "[3]", "value": "none of IL-6, IL-12, IL-1β, and IL-10 was detected"}]}
